In ChEMBL document CHEMBL1140619:
Square brackets hold non-standard residues; d marks the D form. Peptide text beside a SMILES is read from it. * marks the point of attachment. Tyr(Nα,Nα-allyl2) = C=CCN(CC=C)[C@@H](Cc1ccc(O)cc1)C(=O)*; Aib = CC(C)(N)C(=O)O

How the values were obtained:
[1] = molecular target: Delta-type opioid receptor (Rattus norvegicus) (UniProt P33533); assay: Displacement of [3H]naltrindole from rat delta opioid receptor expressed in C6 cells; type: cell-based
[2] = molecular target: Delta-type opioid receptor (Rattus norvegicus) (UniProt P33533); assay: Agonist activity at rat delta opioid receptor expressed in C6 cells assessed as stimulation of [35S]GTP-gamma-S binding relative to BW373U86; type: functional, cell-based

Sequence of Delta-type opioid receptor (Rattus norvegicus) (P33533 whole entry): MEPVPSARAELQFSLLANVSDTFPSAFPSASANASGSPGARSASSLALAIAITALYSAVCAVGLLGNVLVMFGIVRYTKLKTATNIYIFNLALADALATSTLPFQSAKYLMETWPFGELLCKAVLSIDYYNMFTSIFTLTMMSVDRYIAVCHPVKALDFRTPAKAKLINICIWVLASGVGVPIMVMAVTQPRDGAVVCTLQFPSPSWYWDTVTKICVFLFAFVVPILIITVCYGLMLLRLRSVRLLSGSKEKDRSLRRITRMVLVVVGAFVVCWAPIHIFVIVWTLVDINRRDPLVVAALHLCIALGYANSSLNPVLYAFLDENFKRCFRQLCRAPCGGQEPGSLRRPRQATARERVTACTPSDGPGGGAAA

| Structure (SMILES) | Activity [1] | Activity [2] |
| --- | --- | --- |
| CN1CC[C@]23c4c5ccc(O)c4O[C@H]2C(=O)C2(Cc4ccccc4C2)C[C@@]3(O)[C@H]1C5 | 8.4 nM | 0.18 |
| CC1(C)SSC(C)(C)C(NC(=O)[C@@H](N)Cc2ccc(O)cc2)C(=O)NCC(=O)N[C@@H](Cc2ccc(Cl)cc2)C(=O)NC1C(=O)O (stereo in doubt) | 135 nM | 0.8 |
| C=CCN(CC=C)[C@@H](Cc1ccc(O)cc1)C(=O)NC(C)(C)C(=O)NC(C)(C)C(=O)N[C@@H](Cc1ccccc1)C(=O)N[C@@H](CC(C)C)C(=O)O ({Tyr(Nα,Nα-allyl2)}-[Aib][Aib]FL-OH) | 37 nM | 0 |
| CC(C)C[C@H](NC(=O)[C@H](Cc1ccccc1)NC(=O)CNC(=O)[C@@H](CO)NC(=O)[C@@H](N)Cc1ccc(O)cc1)C(=O)N[C@H](C(=O)O)[C@@H](C)O | 93 nM | 0.9 |
| C=CCN1C[C@H](C)N([C@H](c2ccc(C(=O)N(CC)CC)cc2)c2cccc(OC)c2)C[C@H]1C | 60 nM | 1.02 |
| C=CCN1C[C@H](C)N([C@H](c2ccc(C(=O)N(CC)CC)cc2)c2cccc(O)c2)C[C@H]1C | 0.45 nM |  |
| CN1CC[C@]23c4c5ccc(O)c4O[C@H]2c2[nH]c4ccccc4c2C[C@@]3(O)[C@H]1C5 | 6.5 nM | 0.12 |
| Oc1ccc2c3c1O[C@H]1c4oc5ccccc5c4C[C@@]4(O)[C@@H](C2)N(CC2CC2)CC[C@]314 | 0.037 nM |  |
| CC(C)[C@H](NC(=O)[C@H](CC(=O)O)NC(=O)[C@H](Cc1ccccc1)NC(=O)[C@@H](C)NC(=O)[C@@H](N)Cc1ccc(O)cc1)C(=O)N[C@H](C(=O)NCC(N)=O)C(C)C | 81 nM | 0.59 |
| O=C1/C(=C/c2ccccc2)C[C@@]2(O)[C@H]3Cc4ccc(O)c5c4[C@@]2(CCN3CC2CC2)[C@H]1O5 | 0.079 nM |  |
| Oc1ccc2c3c1O[C@H]1c4[nH]c5ccccc5c4C[C@@]4(O)[C@@H](C2)N(CC2CC2)CC[C@]314 |  | 0 |
